Measurements: article PMC3454376, “Salidroside Improves Behavioral and Histological Outcomes and Reduces Apoptosis via PI3K/Akt Signaling after Experimental Traumatic Brain Injury” (PLoS ONE, 2012)
Read-outs that look alike come from different tables or passages of the source.

Key:
[1] = set-up: method as in PMID 17631426; settings: rats, cited from earlier work
[2] = test system: mice subjected to controlled cortical impact injury; assay: Modified neurological severity score (mNSS) after CCI; assay type: in vivo
Procedure: All animal procedures were approved by the Animal Research Committee at Cheng Hsin General Hospital (Animal permit number […] 101-08), and all procedures complied with the Guide for the Care and Use of Laboratory Animals published by the US National Institutes of Health (NIH Publication No. 85-23, revised 1996). Animals were housed under a 12-h light/dark cycle and at constant temperature (21-25°C) and humidity (45-50%). They were allowed free access to pellet chow and water. TBI in mice was induced by a CCI injury model as previously described. Briefly, 8-week-old male C57BL/6 mice (weighing 22-25 g) were anesthetized through the use of intraperitoneal injection of sodium pentobarbital (65 mg/kg; Rhone Merieux, Harlow, UK) and placed in a stereotaxic frame. A 5 mm craniotomy was performed over the right parietal cortex, centered on the coronal suture and 0.1 mm lateral to the sagittal suture, and injury to dura was avoided. […] Body temperature was monitored throughout the surgery by a rectal probe; temperature was maintained at 37.0±0.5°C using a heated pad. […] To determine the optimal dose of salidroside, a pilot study was performed using 2 different doses (20 and 50 mg/kg) administered 10 min after injury, and neurological deficits and tissue damage were evaluated as the main outcomes. […]

## OC[C@H]1O[C@@H](OCCc2ccc(O)cc2)[C@H](O)[C@@H](O)[C@@H]1O [SALD, salidroside]
[1]; intravenous administration
  mean elimination half-life (t1/2): around 0.5 h
[1]; oral administration
  mean elimination half-life (t1/2): ~1.1 h
[2]; 20 mg/kg ip 10 min after CCI, days 4, 14, 21, 28, all P<0.05
  mNSS scores versus vehicle group: significant lower
[2]; 50 mg/kg ip 10 min after CCI, days 14, 21, 28, P<0.05
  mNSS scores versus vehicle group: significantly lower
